Assay results: patent publication US20190029989A1, “BOWEL CARE USING IONTOPHORESIS” (priority 2016, published 2019)

Assays:
Assay type in all cases: in vivo, human
Persons with SCI [1] = experiment: Bowel evacuation score by video fluoroscopy after IV bolus in thirteen subjects (Example 3); details: IV bolus 2 mg neostigmine alone or with 0.4 mg glycopyrrolate
Method: (§1) Thirteen (13) persons with SCI (5 quadriplegics, 8 paraplegics) with a mean age of 46 years (range 25-69) and mean duration of injury of 16 years (range 1-31) were treated. None of the subjects had known heart disease and/or history of arrhythmias.
(§2) On separate days, subjects were given by IV bolus either (i) 2 mg neostigmine alone, (ii) a combination of 2 mg neostigmine and 0.4 mg glycopyrrolate, or (iii) normal saline. Subjects were blinded to the type of infusion being delivered. The effect of these infusions on bowel evacuation was assessed semi-quantitatively on a scale of 0 (no evacuation) to 4+(complete evacuation) using video fluoroscopy after rectal instillation of a barium-oatmeal paste having a consistency similar to that of stool. Blood pressure, heart rate and other vital signs were monitored in each subject. In addition, airway resistances were determined in each subject using the forced oscillation technique (as described, for example, in Goldman, Pulm. Pharmacol. Ther., 14(5):341-350, 2001). Total airway resistance was determined using 5 Hz forced oscillations, and central airway resistance was determined using 20 Hz forced oscillations.
This response received a 0 (zero) bowel evacuation score. FIGS. 1B-1E show progressively increasing bowel evacuation responses in different subjects. The responses in FIGS. 1B-1E correspond to bowel evacuation scores of 1+, 2+, 3+, and 4+, respectively.

Persons with SCI [2] = experiment: Heart rate and blood pressure monitoring after IV bolus (Example 3); details: IV bolus 2 mg neostigmine alone or with 0.4 mg glycopyrrolate
Method: as §1, §2

Persons with SCI [3] = experiment: Airway resistance by forced oscillation technique after IV bolus (Example 3); details: IV bolus 2 mg neostigmine
Method: as §1, §2

CN(C)C(=O)Oc1cccc([N+](C)(C)C)c1 [neostigmine]
subjects with prompt and complete evacuation (Persons with SCI [1]): 57%
time of evacuation post infusion (mean) (Persons with SCI [1]): 11 min
mean bowel evacuation score (Persons with SCI [1]; scale 0 (no evacuation) to 4+ (complete evacuation), thirteen subjects): about 2.29
change in blood pressure (Persons with SCI [2]): No change
mean lowest heart rate measured (Persons with SCI [2]; p=0.02): about 49 BMP
total airway resistance, increase over baseline (Persons with SCI [3]; 5 Hz forced oscillations): approximately 25.5%
central airway resistance, increase over baseline (Persons with SCI [3]; 20 Hz forced oscillations): approximately 18.4%
